Data on 14 compounds can be found in patent publication US6472416B1, “Sulfonylphenylpyrazole compounds useful as COX-2 inhibitors” (Abbott Laboratories, priority 1999, dated 2002).

In data set [1] the test system is IL-1β induced PGE2 production in human amnionic WISH cells. Kind of data set: IL-1β Induced PGE2 Production in WISH Cells. The settings on record: IL-1β 18 hour. The data set is classed as cell-based. The procedure: (§1) EIA reagents for prostaglandin determination were purchased from Perseptive Diagnostics, (Cambridge, Mass.). Prostaglandin E2 (PGE2) levels in lavage fluids were determined after the samples were dried under nitrogen and reconstituted with assay buffer. PGE2 levels in enzyme assays or cell culture media were measured against standards prepared in the same milieu. The immunoassays were conducted as recommended by the manufacturer. The EIA was conducted in 96 well microtiter plates (Nunc Roskilde, Denmark) and optical density was measured using a microplate reader (Vmax, Molecular Devices Corp., Menlo Park, Calif.).
Human amnionic WISH cells were grown to 80% confluence in 48 well plates. Following removal of the growth medium and two washings with Gey's Balanced Salt Solution, 5 ng IL-1β/ml (UBI, Lake Placid, N.Y.) was added to the cells with or without test compound in DMSO (0.01% v/v) in Neuman-Tytell Serumless Medium (GIBCO, Grand Island, N.Y.). Following an 18 hour incubation to allow for the maximal induction of PGHS-2, the conditioned medium was removed and assayed for PGE2 content by EIA anylysis as described above.
WISH cell values indicate percent inhibition at the particular dose level.

Data set [2] addresses T1, recombinant human Cox-1 (r-hu Cox-1, PGHS-1) (Homo sapiens, UniProt P23219).
T1 construct: made in house; host or cells: baculovirus/Sf9 insect cells (microsomes)
Kind of data set: Recombinant human PGHS-1 (r-hu Cox-1) enzyme assay, PGE2 by EIA. The data set is classed as biochemical. To be noted: read-out: r-hu COX1 percent inhibition. As to the method: (§2) To compare the mean responses of the treatment groups, analysis of variance was applied. Percent inhibition values were determined by comparing the individual treatment mean values to the mean of the control group. Linear regression was used to estimate IC50's/ED50's in appropriate assays.
as §1
(§3) Inhibition of prostaglandin biosynthesis in vitro was evaluated using recombinant human Cox-1 (r-hu Cox-1) and Cox-2 (r-hu Cox-2) enzyme assays. […] The reaction was allowed to run for 2.5 minutes at room temperature prior to quenching with HCl and neutralization with NaOH. PGE2 production in the presence and absence of the drug was determined by EIA analysis. The EIA was conducted in 96 well microtiter plates (Nunc Roskilde, Denmark) and optical density was measured using a microplate reader (Vmax, Molecular Devices Corp., Menlo Park, Calif.). EIA reagent for prostaglandin determination were purchased from Perseptive Diagnostics (Cambridge, Mass.). PGE2 levels were measured against standards prepared in the same milieu. The immunoassays were conducted as recommended by the manufacturer.
(§4) The compounds are designated by the Example Number. […] Values for Cox-2 inhibition that are parenthetical indicate IC50 values.

Data set [3] deals with prostaglandin biosynthesis in vivo. Nature of the data set: Rat Carrageenan Pleural Inflammation (CIP) Model. To be noted: 10 mg/kg oral, 30 minutes prior to intrapleural carrageenan, lavage four hours later. The procedure: For oral administration, test compounds were suspended on the day of use in 100% polyethyleneglycol (PEG 400) with a motorized homogenizer equipped with a Teflon-coated pestle (TRI-R Instrument, Jamaica, N.Y.).
as §2, §1
Pleural inflammation was induced in male adrenalectomized Sprague-Dawley rats following the method of Vinegar et al., Fed. Proc. 1976, 35, 2447-2456. […] Eicosanoids were determined by EIA as described above. […]

For data set [4], the target named is T2, recombinant human Cox-2 (r-hu Cox-2, PGHS-2) (Homo sapiens, UniProt P35354).
T2 construct: made in house; host or cells: baculovirus/Sf9 insect cells (microsomes)
T2 sequence (P35354 18-604): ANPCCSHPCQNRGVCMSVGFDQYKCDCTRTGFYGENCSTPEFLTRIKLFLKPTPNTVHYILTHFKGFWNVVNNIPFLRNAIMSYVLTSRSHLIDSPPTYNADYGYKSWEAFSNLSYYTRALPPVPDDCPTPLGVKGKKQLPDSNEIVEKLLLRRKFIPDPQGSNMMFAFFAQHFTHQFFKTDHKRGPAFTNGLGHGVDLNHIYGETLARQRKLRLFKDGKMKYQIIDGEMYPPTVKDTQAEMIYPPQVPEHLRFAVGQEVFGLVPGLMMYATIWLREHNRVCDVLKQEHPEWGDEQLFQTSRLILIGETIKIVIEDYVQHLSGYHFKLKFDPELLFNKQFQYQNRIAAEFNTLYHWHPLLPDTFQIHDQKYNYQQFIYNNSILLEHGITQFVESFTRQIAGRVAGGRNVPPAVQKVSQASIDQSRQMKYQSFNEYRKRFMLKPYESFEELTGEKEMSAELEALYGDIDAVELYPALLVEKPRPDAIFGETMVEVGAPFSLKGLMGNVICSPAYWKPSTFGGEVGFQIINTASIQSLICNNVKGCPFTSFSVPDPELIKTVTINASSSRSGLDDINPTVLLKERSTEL
Kind of data set: Recombinant human PGHS-2 (r-hu Cox-2) enzyme assay, PGE2 by EIA. The settings on record: for inhibition at 0.1 µM: at 100 nM; for IC50: read-out: r-hu COX2 IC50 (parenthetical values). It counts as biochemical. As to the method: as §2, §1, §3, §4

Setting [5] is: read-out: r-hu COX2 percent inhibition.

T1 sequence (P23219 24-599): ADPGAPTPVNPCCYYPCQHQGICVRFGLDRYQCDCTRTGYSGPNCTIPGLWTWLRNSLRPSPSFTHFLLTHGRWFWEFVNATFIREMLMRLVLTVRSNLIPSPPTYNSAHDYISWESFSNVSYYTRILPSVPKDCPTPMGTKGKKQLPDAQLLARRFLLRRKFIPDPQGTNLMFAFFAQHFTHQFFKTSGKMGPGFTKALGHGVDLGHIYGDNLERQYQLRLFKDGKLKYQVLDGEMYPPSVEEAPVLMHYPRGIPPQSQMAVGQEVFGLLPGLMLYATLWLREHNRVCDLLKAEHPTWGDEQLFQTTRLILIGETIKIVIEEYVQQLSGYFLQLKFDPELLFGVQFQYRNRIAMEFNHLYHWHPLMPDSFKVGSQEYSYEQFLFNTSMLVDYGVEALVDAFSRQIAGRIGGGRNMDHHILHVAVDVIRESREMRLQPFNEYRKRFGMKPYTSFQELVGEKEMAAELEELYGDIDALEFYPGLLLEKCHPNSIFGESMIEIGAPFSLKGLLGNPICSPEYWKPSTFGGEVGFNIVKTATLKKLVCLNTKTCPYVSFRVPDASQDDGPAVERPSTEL

Take “1-(4-Fluorophenyl)-2-{[4-(4-fluorophenyl)-1-methyl-5-(4-(methylsulphonyl)phenyl)-1H-pyrazol-3-yl]oxy}ethan-1-one and; 1-(4-Fluorophenyl)-2-{[4-(4-fluorophenyl)-1-methyl-3-(4-(methylsulphonyl)phenyl)-1H-pyrazol-5-yl]oxy}ethan-1-one [Example 35]”: the WISH percent inhibition is on record as 38 @ 0.01% in data set [1] (at 0.01 (nM)) and 95 @ 0.1% in data set [1] (at 0.1 (nM)).

Regarding `CS(=O)(=O)c1ccc(-c2c(-c3ccc(F)cc3)c(OCC(=O)c3ccccc3)nn2CC(=O)c2ccccc2)cc1` [Example 12, 2-[4-(4-Fluorophenyl)-5-(4-(methylsulphonyl)phenyl)-3-(2-oxo-2-phenylethoxy)-1H-pyrazol-1-yl]-1-phenylethan-1-one], the melting point (as a rule, the temperature, or range, at which the solid turns liquid) lay within 151 to 152 °C. In addition, in data set [2], the inhibition (as a rule, the change of the read-out against control, counted positive when it falls) at 100 µM turned out to be 0%. The “CIP Inh @ 10 mpk” value in data set [3] came out at 38%.

For `CS(=O)(=O)c1ccc(-c2c(-c3ccc(F)cc3)c(OCC(=O)c3ccc(F)cc3)nn2CC(=O)c2ccc(F)cc2)cc1` [Example 13, 2-[4-(4-Fluorophenyl)-5-(4-(methylsulphonyl)phenyl)-3-(2-oxo-2-(4-fluorophenyl)ethoxy)-1H-pyrazol-1-yl]-1-(4-fluorophenyl)ethan-1-one], the melting point was 194 to 196 °C. In data set [4] (setting [5]), the inhibition at 0.1 µM turned out to be 90%. In addition, the inhibition at 100 µM in data set [2] was 17%. Moreover, the “CIP Inh @ 10 mpk” value in data set [3] amounted to 22%.

In turn, `CS(=O)(=O)c1ccc(-c2c(-c3ccc(F)cc3)c(OCC(=O)c3cccs3)nn2CC(=O)c2cccs2)cc1` [Example 20A, 2-{4-(4-Fluorophenyl)-5-(4-(methylsulphonyl)phenyl)-3-[2-(2-thienyl)-2-oxoethoxy]-1H-pyrazol-1-yl}-1-(2-thienyl)ethan-1-one] had a melting point of 136 to 138 °C. Besides, the inhibition at 0.1 µM in data set [4] (setting [5]) stood at 38%. In addition, in data set [2] (at 10 μM), the inhibition at 10 µM was determined as 81%.

`CCn1nc(OCC(=O)c2cccs2)c(-c2ccc(F)cc2)c1-c1ccc(S(C)(=O)=O)cc1` [Example 21, 2-[(1-Ethyl-4-(4-fluorophenyl)-5-(4-(methylsulphonyl)phenyl)-1H-pyrazol-3-yl)oxy]-1-(2-thienyl)ethan-1-one]: the melting point was 163 to 164 °C. In addition, the IC50 (commonly the point on the concentration scale where inhibition reaches its midpoint) in data set [4] came out at 31 nM. Also, the inhibition at 100 µM in data set [2] came out at 3%.

For `C=CCn1nc(OCC(=O)c2cccs2)c(-c2ccc(F)cc2)c1-c1ccc(S(C)(=O)=O)cc1` [Example 22, 2-[(1-Allyl-4-(4-fluorophenyl)-5-(4-(methylsulphonyl)phenyl)-1H-pyrazol-3-yl)oxy]-1-(2-thienyl)ethan-1-one], the melting point was 146 to 148 °C. The IC50 in data set [4] turned out to be 60 nM. Moreover, the inhibition at 100 µM in data set [2] amounted to 0%.

The compound `CCn1nc(OC2COCCC2=O)c(-c2ccc(F)cc2)c1-c1ccc(S(C)(=O)=O)cc1` (centres unmarked) [Example 23, 3-[(1-Ethyl-4-(4-fluorophenyl)-5-(4-(methylsulphonyl)phenyl)-1H-pyrazol-3-yl)oxy]tetrahydro-4H-pyran-4-one] gave a melting point of 181 to 182 °C. For the same compound, the inhibition at 10 µM in data set [4] (at 10000 nM, read-out: r-hu COX2 percent inhibition) was found to be 43%. In addition, the inhibition at 100 µM in data set [2] amounted to 27%. Also, the inhibition at 0.001 µM in data set [1] (Homo sapiens, at 1 (nM), read-out: WISH percent inhibition) was 80%.

The compound `CCn1nc(OC2CSCCC2=O)c(-c2ccc(F)cc2)c1-c1ccc(S(C)(=O)=O)cc1` (centres unmarked) [Example 24, 3-[(1-Ethyl-4-(4-fluorophenyl)-5-(4-(methylsulphonyl)phenyl)-1H-pyrazol-3-yl)oxy]tetrahydro-4H-thiopyran-4-one] had a melting point of 210 to 211 °C. Further, the inhibition at 0.1 µM in data set [4] (setting [5]) worked out at 37%. Besides, the inhibition at 100 µM in data set [2] is 20%.

`CC(C)(C)C(=O)COc1nn(CC=C(Cl)Cl)c(-c2ccc(S(C)(=O)=O)cc2)c1-c1ccc(F)cc1` [Example 26, 1-{[1-(3,3-Dichloroallyl)-4-(4-fluorophenyl)-5-(4-(methylsulphonyl)phenyl)-1H-pyrazol-3-yl]oxy}-3,3-dimethylbutan-2-one] came in with a melting point of 156 to 158 °C. The inhibition at 0.0001 µM in data set [1] (Homo sapiens, at 0.1 (nM), read-out: WISH percent inhibition) was determined as 64%.

As for `CCn1nc(OCC(=O)C(C)(C)C)c(-c2ccc(F)cc2)c1-c1ccc(S(C)(=O)=O)cc1` [Example 27, 1-[(1-Ethyl-4-(4-fluorophenyl)-5-(4-(methylsulphonyl)phenyl)-1H-pyrazol-3-yl)oxy]-3,3-dimethylbutan-2-one], the melting point is 144 to 146 °C. Also, in data set [4], the half-maximal inhibitory concentration (IC50) was determined as 5 nM. The inhibition at 100 µM in data set [2] is 0%.

The compound `CCn1nc(OCC(=O)C(C)(C)C)c(-c2ccc(F)cc2)c1-c1ccc(S(N)(=O)=O)cc1` [Example 29, 1-[(1-Ethyl-4-(4-fluorophenyl)-5-(4-(aminosulphonyl)phenyl)-1H-pyrazol-3-yl)oxy]-3,3-dimethylbutan-2-one] yielded a melting point of 196 to 198 °C. Besides, the inhibition at 0.1 µM in data set [4] (setting [5]) worked out at 55%. The inhibition at 100 µM in data set [2] turned out to be 54%.

The compound `CC(=O)n1nc(OCC(=O)C(C)(C)C)c(-c2ccccc2)c1-c1ccc(S(C)(=O)=O)cc1` [Example 32, 1-[(1-Acetyl-5-(4-(methylsulphonyl)phenyl)-4-phenyl-1H-pyrazol-3-yl)oxy]-3,3-dimethylbutan-2-one] came in with a melting point of 189 to 191 °C. Further, the inhibition at 10 pM in data set [1] (Homo sapiens, at 0.01 (nM), read-out: WISH percent inhibition) is 47%.

On to `CCn1nc(OCC(=O)C(C)(C)C)c(-c2ccccc2)c1-c1ccc(S(C)(=O)=O)cc1` [Example 33, 1-[(1-Ethyl-5-(4-(methylsulphonyl)phenyl)-4-phenyl-1H-pyrazol-3-yl)oxy]-3,3-dimethylbutan-2-one], for which the melting point is 158 to 161 °C. The inhibition at 1 pM in data set [1] (Homo sapiens, at 0.001 (nM), read-out: WISH percent inhibition) came out at 78%.

For the compound `CCC(=O)COc1nn(CC(=O)CC)c(-c2ccc(S(C)(=O)=O)cc2)c1-c1ccc(F)cc1` [Example 34], the WISH percent inhibition in data set [1] (at 1 (nM)) is recorded as 62 @ 1%.
